Like-named read-outs stand apart in the source and are kept apart here.

Data set [1] has as its system melanoma tumor. The experiment in a line: Treatment of melanoma tumor bearing animals. The data set is classed as in vivo.
Data set [2] has as its system A375 human melanoma cells. The experiment in a line: MTT viability analysis, TPP chain length and treatment time, A375 cells. The following applies: for cytotoxicity at 0.5 µM: Homo sapiens, read-out: decrease in A375 cell viability.
Method: (§1) A375 human melanoma (catalog no. CRL1619™) cells were purchased from ATCC®. All cells were cultured in 150 cm^2 culture flasks at 37° C. in a humidified 5% CO2 incubator and detached with 0.25% trypsin-EDTA (GIBCO®, catalog no. 25200). A375 cells were cultured in high glucose DMEM medium (GIBCO®, catalog no. 11965) supplemented with 1% PenStrep (GIBCO®, catalog no. 15140) and 10% FBS (GIBCO®, catalog no. 26140). MeWo cells were cultured in 1:1 DMEM:F12 (VENDOR INFO) medium supplemented with 1% PenStrep and 10% FBS. Melanocytes were cultured in Ham's F10 medium (GIBCO®, catalog no 11550) supplemented with 7% horse serum (Hyclone®, catalog no. SH30074.03) and 50 ng/mL 12-myristate 13-acetate (TPA) (Sigma®, catalog no. P-8139). Experiments were performed with cells at or below passage twenty.
(§2) MTT viability analysis of melanoma cells versus non-malignant melanocyte cells looking at the effect of variation in TPP molecular chain length and treatment time. A375 human melanoma cells in (A), MeWo human melanoma cells in (B), and non-malignant melanocyte cells in (C) were treated with TPP derivatives at a 0.5 μM concentration for 24 h, 48 h, and 72 h.
In data set [3] the test system is MeWo human melanoma cells. In words: MTT viability analysis, TPP chain length and treatment time, MeWo cells. The following applies: for cytotoxicity at 0.5 µM: Homo sapiens, MeWo, read-out: decrease in MeWo cell viability.
Method: as §1, §2
For data set [4], the system named is non-malignant melanocyte cells. The experiment in a line: MTT viability analysis, TPP chain length and treatment time, melanocytes. The following applies: 0.5 μM.
Method: as §1, §2

Regarding `CCCCCCCCCC[P+](c1ccccc1)(c1ccccc1)c1ccccc1` [decyl-TPP, decyltriphenylphosphonium], in data set [1], the tolerability entry is on record as “well-tolerated”. Moreover, in data set [2] (0.5 μM, 24 h), the “decrease in A375 cell viability” value is on record as “no significant decrease”. Further, the cytotoxicity at 0.5 µM in data set [2] (A-375, 48 h) is greater than 30%; in data set [2] (A-375, 72 h), greater than 30%; in data set [3] (48 h), greater than 30%; in data set [3] (72 h), greater than 30%. Moreover, in data set [3] (0.5 μM, 24 h), the “decrease in MeWo cell viability” value is “no significant decrease”. The “decrease in non-malignant melanocyte cell viability” value in data set [4] (24 h) and in data set [4] (48 h) was “No significant decrease” each time. Further, the “decrease in melanocyte viability” value in data set [4] (72 h) is “not observed”.
